Laboratory results reported in US20130045991A1, “NEUROPROTECTIVE MODULATION OF NMDA RECEPTOR SUBTYPE ACTIVITIES” (THE UNIVERSITY OF BRITISH COLUMBIA, priority 2005, published 2013).
Entries after “also recorded” stand apart in the source; their conditions may differ.

Assays:
cortical neurons [1] = experiment: Apoptosis by NMDA after blockade of synaptic NMDA receptors (extrasynaptic receptors); format: cell-based, rat; details: synaptic receptors blocked with MK-801 plus bicuculline; NMDA 50 μM plus 10 μM glycine 20 min; assayed 20 h after
Description: In accordance with various aspect of the invention, we have illustrated the role of extrasynaptic NR2A- and NR2B-containing receptors in mediating NMDA-induced cell survival and death. After a specific blockade of synaptic NMDA receptors and wash-out of bicuculline and MK-801, the neurons were treated with NMDA (50 μM plus 10 μM glycine) for 20 min in the absence or presence of NVP-AAM077 (0.4 μM) or Ro 25-6981 (0.5 μM). […] Thus, as with synaptic NMDA receptors, activation of extrasynaptic NR2A-containing receptors has a role in promoting cell survival, counteracting NR2B-containing receptor-mediated neuronal apoptosis. […]
(§1) To visualize injured neurons, Hoechst-33342 (10 μg/ml) was added to the culture medium 20 h after treatments and incubated for 45 min at 37 °C. Images were taken with a Leica DMIRE2 fluorescence microscope. Quantitative assessment of neuronal apoptosis was performed 20 h following treatments using a Cell Death Detection ELISAPLUS Kit (Roche Applied Science). Absorbance readings were determined using a spectrophotometric microplate reader. […] Data are expressed as the difference in apoptosis relative to control and are expressed as a percentage.

cortical neurons [2] = experiment: Neuronal apoptosis with bicuculline-enhanced activation of synaptic NMDA receptors; format: cell-based, rat; details: bicuculline 50 μM, 4 h; for neuronal apoptosis on co-application with bicuculline: apoptosis quantified 20 h after
Description: The function of the NR2A and NR2B synaptic receptor subpopulations in mediating neuronal survival or death is also illustrated herein, as follows. To increase activation of synaptic NMDA receptors by synaptically released glutamate, neurons were incubated with the GABAA receptor antagonist bicuculline (50 μM, 4 h). Bicuculline increases neuronal excitation by blocking the GABAA receptor-mediated synaptic inhibition and thereby enhances action potential-dependent synchronized release of glutamate from presynaptic terminals. Neuronal apoptosis was quantified 20 h following the treatments. […] The NR2A blockade-induced neuronal apoptosis was demonstrably mediated by synaptic NR2B-containing receptors, as it was prevented in the presence of Ro 25-6981 (p<0.01; FIG. 3B).
(§2) Dissociated cultures of cortical neurons were prepared from 18-day Sprague-Dawley rat embryos as described previously (Mielke et al., 2005). To obtain mixed cortical cultures enriched with neurons, uridine (10 μM) and 5-Fluor-2′-deoxyuridine (10 μM) were added to the culture medium at 3 DIV and maintained for 48 h, to inhibit non-neuronal cell proliferation, before the cultures were shifted back to the normal culture medium. Mature neurons (11-14 DIV) were used for experiments. To induce neuronal apoptosis, cortical cultures were stimulated with NMDA (50 μM) and glycine (10 μM) for 20 min, or STS (100 nM) for 1 h in Mg2+-free extracellular solution (ECS) containing (mM): 25 HEPES acid, 140 NaCl, 33 glucose, 5.4 KCl and 1.3 CaCl2, with pH 7.35 and osmolarity 320-330 mOsm. […]
as §1

cortical neurons [3] = experiment: Staurosporine (STS)-induced neuronal apoptosis; format: cell-based, rat; details: co-application of NVP-AAM077 0.4 μM
Source text: In alternative aspects of the invention, we have achieved specific activation of NR2A-containing receptors using two different strategies. First, we examined the effect of selective activation of extrasynaptic NR2A-containing receptor activation on neuronal appopotosis induced by staurosporine (STS), a potent apoptosis inducer (Budd et al., 2000). […] The NMDA-induced neuronal protection was indeed mediated by NR2A-containing receptors as it was prevented by co-application of NVP-AAM077 (p<0.001 compared with STS alone).
as §2, §1

[4] = test system: middle cerebral artery occlusion (MCAo); experiment: MCAo focal ischemic stroke model, post-ischemic treatment; format: in vivo, rat; details: for effect of co-administration on the glycine effect (infarct volume reduction): co-administered with glycine 800 mg/kg 4.5 h after stroke onset
Source text: In some clinical settings, it is desirable to implement therapy after the onset of neuronal injury, such as stroke or other ischemic events.
Transient cerebral focal ischemia was produced by middle cerebral artery occlusion (MCAo) as described (Aarts et al., 2002; Bederson et al., 1986; Longa et al., 1989). Briefly, male Sprague-Dawley rats (Charles River Laboratories) weighing ˜300 g were anesthetized and MCAo was achieved by introducing a 3-0 monofilament suture into the MCA via the internal carotid artery. Body temperature was maintained at 37.0±0.5° C., and blood pressure and blood gases were monitored during the experiments. Animals were sacrificed 24 h following MCAo onset. Cerebral infarction was analyzed using brain sections stained with hematoxylin and eosin (H & E) or 2,3,5-triphenyltetrazolium chloride (TTC). 10 min before the animals were sacrificed, two tests, the postural reflex test to examine upper body posture (Bederson et al., 1986) and the forelimb placing test to examine sensorimotor integration in forelimb placing responses to visual, tactile, and proprioceptive stimuli (De Ryck et al., 1989), were performed to grade neurological function on a scale of 0 to 12 (0=normal, 12=worst). In the pretreatment study, a single bolus of drugs (NR2A-specific antagonist NVP-AAM077 (2.4 mg/kg) or NR2B specific antagonist Ro 25-6981 (6 mg/kg) or vehicle (saline)) was infused intravenously 30 min before a 1-h MCAo. For post-treatment experiments, animals were subjected to a 1.5-h MCAo and drug treatments (glycine, 800 mg/kg; NVP-AAM077 and Ro 25-6981 at the same doses as in the pretreatment study) were then given via intraperitoneal injection (i.p.) 3 h after reperfusion (4.5 h after the onset of MCAo).
The activating effect on NR2A-containing receptors was mimicked with the application of the NMDA receptor co-agonist glycine in the presence of an […] NR2B antagonist. Glycine by itself potentiates the function of NMDA receptors that are activated by endogenously released glutamate from presynaptic terminals both in vitro and in vivo (Johnson et al., 1987; Lu et al., 2001; De et al., 2000).

C[C@H](NC(c1cccc2[nH]c(=O)c(=O)[nH]c12)P(=O)(O)O)c1ccc(Br)cc1 (stereo partly shown) [NVP-AAM077]
effect on apoptosis elicited by NMDA via extrasynaptic NMDA receptors (cortical neurons [1]): potentiated NMDA-mediated apoptosis | neuronal apoptosis on co-application with bicuculline (cortical neurons [2]): significantly increased neuronal apoptosis | effect on NMDA-induced protection against STS (cortical neurons [3]): prevented | effect of co-administration on the glycine effect (infarct volume reduction) [4]: abolished; also recorded: prevented | effect of co-administration on the glycine effect (infarct volume reduction) ([4]; listed as NVP-AAM066): abolished the neuroprotection offered by glycine

C[C@@H](CN1CCC(Cc2ccccc2)CC1)[C@@H](O)c1ccc(O)cc1 (relative stereo) [Ro 25-6981, [R-(R*,S*)]-α-(4-Hydroxyphenyl)-β-methyl-4-(phenylmethyl)-1-piperidinepropanol]
effect on apoptosis elicited by NMDA via extrasynaptic NMDA receptors (cortical neurons [1]): prevented | effect on NR2A blockade (NVP-AAM077 + bicuculline)-induced neuronal apoptosis (cortical neurons [2]; plus NVP-AAM077): prevented | neuronal apoptosis on co-application with bicuculline (cortical neurons [2]): did not cause apoptotic cell death | effect of co-administration on the glycine effect (infarct volume reduction) [4]: resistant | neuroprotection / total infarct volume compared with MCAo alone ([4]; given 3 h after 1.5-h MCAo (4.5 h after stroke onset), MK801 1 mg/Kg, glycine 800 mg/Kg, Ro 25-6981 6 mg/Kg): did not provide any noticeable neuroprotection; also recorded: ineffectiveness
